Assay results reported in PubChem BioAssay AID2060511 (Molecular Pharmacology Branch, DTP, NCI, 2025).

Tested on: 422866-222-R5-J1-PDC spheroids with HUVEC/MSC, viability
Test: Anticancer human tumor 422866-222-R5-J1-PDC patient-derived pancreatic adenocarcinoma cell line growth inhibition [GQUAD]
Conditions: for IC50: curve of first compound; for viability, T/C: stronger effect = lower value
Summary of the method: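 Multi-cell-type spheroids of tumor cells with HUVEC and mesenchymal stem cells, treated with drug combinations. Concentrations descend in half-log steps from near clinical Cmax, or from 10 microM where Cmax is unknown; viability read-out.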

[1] = second compound 0.0316 µM, first compound 0.0316 µM
[2] = second compound 0.0316 µM, first compound 0.316 µM
[3] = second compound 0.1 µM, first compound 0.0316 µM
[4] = second compound 0.1 µM, first compound 0.316 µM
[5] = second compound 0.316 µM, first compound 0.0316 µM
[6] = second compound 0.316 µM, first compound 0.316 µM
[7] = second compound 1 µM, first compound 0.0316 µM
[8] = second compound 1 µM, first compound 0.316 µM
[9] = second compound 3.16 µM, first compound 0.0316 µM
[10] = second compound 3.16 µM, first compound 0.316 µM
[11] = second compound 10 µM, first compound 0.0316 µM
[12] = second compound 10 µM, first compound 0.316 µM
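Note: spheroids exposed to compounds for seven days before reading.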
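Throughout, for viability, T/C: percent viability relative to DMSO vehicle control taken as 100%.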

**Q.** Which IC50 (second compound 0.0316 µM) does the source give for `CC(=O)O[C@H]1C(=O)[C@@]2(C)[C@H]([C@H](OC(=O)c3ccccc3)[C@]3(O)C[C@H](OC(=O)[C@H](O)[C@@H](NC(=O)c4ccccc4)c4ccccc4)C(C)=C1C3(C)C)[C@]1(OC(C)=O)CO[C@@H]1C[C@@H]2O` + Cc1[nH]c2ccc(F)cc2c1-c1nc2c3cccnc3c3ncccc3c2[nH]1 here?
**A.** 671 nM

**Q.** What about the IC50 (second compound 0.1 µM) of the same molecule?
**A.** 1300 nM

**Q.** What about the IC50 (second compound 0.316 µM) of the same molecule?
**A.** 2040 nM

**Q.** And the IC50 (second compound 1 µM)?
**A.** 1720 nM

**Q.** And the IC50 (second compound 3.16 µM)?
**A.** 2160 nM

**Q.** And the IC50 (second compound 10 µM)?
**A.** 2040 nM

**Q.** And the viability, T/C [1]?
**A.** 143%

**Q.** What about the viability, T/C (second compound 0.0316 µM, first compound 0.1 µM) of the same molecule?
**A.** 143%

**Q.** And the viability, T/C [2]?
**A.** 74.7%

**Q.** And the viability, T/C (second compound 0.0316 µM, first compound 1 µM)?
**A.** 39%

**Q.** What about the viability, T/C (second compound 0.0316 µM, first compound 3.16 µM) of the same molecule?
**A.** 44.4%

**Q.** And the viability, T/C (second compound 0.0316 µM, first compound 10 µM)?
**A.** 1.31%

**Q.** And the viability, T/C [3]?
**A.** 109%

**Q.** What about the viability, T/C (second compound 0.1 µM, first compound 0.1 µM) of the same molecule?
**A.** 128%

**Q.** What about the viability, T/C [4] of the same molecule?
**A.** 100%

**Q.** What about the viability, T/C (second compound 0.1 µM, first compound 1 µM) of the same molecule?
**A.** 48.5%

**Q.** What about the viability, T/C (second compound 0.1 µM, first compound 3.16 µM) of the same molecule?
**A.** 37.1%

**Q.** And the viability, T/C (second compound 0.1 µM, first compound 10 µM)?
**A.** 2.15%

**Q.** And the viability, T/C [5]?
**A.** 122%

**Q.** What about the viability, T/C (second compound 0.316 µM, first compound 0.1 µM) of the same molecule?
**A.** 107%

**Q.** What about the viability, T/C [6] of the same molecule?
**A.** 99.5%

**Q.** And the viability, T/C (second compound 0.316 µM, first compound 1 µM)?
**A.** 55.3%

**Q.** And the viability, T/C (second compound 0.316 µM, first compound 3.16 µM)?
**A.** 46.9%

**Q.** And the viability, T/C (second compound 0.316 µM, first compound 10 µM)?
**A.** 3.01%

**Q.** And the viability, T/C [7]?
**A.** 117%

**Q.** What about the viability, T/C (second compound 1 µM, first compound 0.1 µM) of the same molecule?
**A.** 115%

**Q.** What about the viability, T/C [8] of the same molecule?
**A.** 98.5%

**Q.** What about the viability, T/C (second compound 1 µM, first compound 1 µM) of the same molecule?
**A.** 53.4%

**Q.** What about the viability, T/C (second compound 1 µM, first compound 3.16 µM) of the same molecule?
**A.** 42%

**Q.** What about the viability, T/C (second compound 1 µM, first compound 10 µM) of the same molecule?
**A.** 2.03%

**Q.** And the viability, T/C [9]?
**A.** 70.5%

**Q.** And the viability, T/C (second compound 3.16 µM, first compound 0.1 µM)?
**A.** 75%

**Q.** And the viability, T/C [10]?
**A.** 95%

**Q.** And the viability, T/C (second compound 3.16 µM, first compound 1 µM)?
**A.** 43.4%

**Q.** What about the viability, T/C (second compound 3.16 µM, first compound 3.16 µM) of the same molecule?
**A.** 50%

**Q.** What about the viability, T/C (second compound 3.16 µM, first compound 10 µM) of the same molecule?
**A.** 3.32%

**Q.** What about the viability, T/C [11] of the same molecule?
**A.** 56.1%

**Q.** And the viability, T/C (second compound 10 µM, first compound 0.1 µM)?
**A.** 62%

**Q.** What about the viability, T/C [12] of the same molecule?
**A.** 58.2%

**Q.** What about the viability, T/C (second compound 10 µM, first compound 1 µM) of the same molecule?
**A.** 46.6%

**Q.** What about the viability, T/C (second compound 10 µM, first compound 3.16 µM) of the same molecule?
**A.** 49.7%

**Q.** What about the viability, T/C (second compound 10 µM, first compound 10 µM) of the same molecule?
**A.** 4.03%

**Q.** With `CC[C@@]1(O)C(=O)OCc2c1cc1n(c2=O)Cc2cc3c(CN(C)C)c(O)ccc3nc2-1` + Cc1[nH]c2ccc(F)cc2c1-c1nc2c3cccnc3c3ncccc3c2[nH]1 as the molecule, how does the IC50 (second compound 0.0316 µM) read?
**A.** 64.6 nM

**Q.** And the IC50 (second compound 0.1 µM)?
**A.** 86.6 nM

**Q.** What about the IC50 (second compound 0.316 µM) of the same molecule?
**A.** 128 nM

**Q.** What about the IC50 (second compound 1 µM) of the same molecule?
**A.** 102 nM

**Q.** What about the IC50 (second compound 3.16 µM) of the same molecule?
**A.** 79.7 nM

**Q.** And the IC50 (second compound 10 µM)?
**A.** 53 nM

**Q.** What about the viability, T/C (second compound 0.0316 µM, first compound 0.000999 µM) of the same molecule?
**A.** 92.9%

**Q.** And the viability, T/C (second compound 0.0316 µM, first compound 0.00316 µM)?
**A.** 95.8%

**Q.** And the viability, T/C (second compound 0.0316 µM, first compound 0.00999 µM)?
**A.** 92.8%

**Q.** What about the viability, T/C [1] of the same molecule?
**A.** 56.9%

**Q.** What about the viability, T/C (second compound 0.0316 µM, first compound 0.0999 µM) of the same molecule?
**A.** 46.2%

**Q.** What about the viability, T/C [2] of the same molecule?
**A.** 45.2%

**Q.** And the viability, T/C (second compound 0.1 µM, first compound 0.000999 µM)?
**A.** 104%

**Q.** What about the viability, T/C (second compound 0.1 µM, first compound 0.00316 µM) of the same molecule?
**A.** 90.8%

**Q.** What about the viability, T/C (second compound 0.1 µM, first compound 0.00999 µM) of the same molecule?
**A.** 86.2%

**Q.** And the viability, T/C [3]?
**A.** 61.7%

**Q.** And the viability, T/C (second compound 0.1 µM, first compound 0.0999 µM)?
**A.** 48.8%

**Q.** What about the viability, T/C [4] of the same molecule?
**A.** 36.8%

**Q.** And the viability, T/C (second compound 0.316 µM, first compound 0.000999 µM)?
**A.** 99.8%

**Q.** And the viability, T/C (second compound 0.316 µM, first compound 0.00316 µM)?
**A.** 88.4%

**Q.** What about the viability, T/C (second compound 0.316 µM, first compound 0.00999 µM) of the same molecule?
**A.** 85.5%

**Q.** And the viability, T/C [5]?
**A.** 71.7%

**Q.** And the viability, T/C (second compound 0.316 µM, first compound 0.0999 µM)?
**A.** 49.2%

**Q.** And the viability, T/C [6]?
**A.** 43.4%

**Q.** And the viability, T/C (second compound 1 µM, first compound 0.000999 µM)?
**A.** 92.7%

**Q.** And the viability, T/C (second compound 1 µM, first compound 0.00316 µM)?
**A.** 98.5%

**Q.** And the viability, T/C (second compound 1 µM, first compound 0.00999 µM)?
**A.** 76.2%

**Q.** And the viability, T/C [7]?
**A.** 74.5%

**Q.** What about the viability, T/C (second compound 1 µM, first compound 0.0999 µM) of the same molecule?
**A.** 46.4%

**Q.** And the viability, T/C [8]?
**A.** 39.8%

**Q.** What about the viability, T/C (second compound 3.16 µM, first compound 0.000999 µM) of the same molecule?
**A.** 83.7%

**Q.** And the viability, T/C (second compound 3.16 µM, first compound 0.00316 µM)?
**A.** 97.3%

**Q.** What about the viability, T/C (second compound 3.16 µM, first compound 0.00999 µM) of the same molecule?
**A.** 78.4%

**Q.** And the viability, T/C [9]?
**A.** 69.2%

**Q.** What about the viability, T/C (second compound 3.16 µM, first compound 0.0999 µM) of the same molecule?
**A.** 44.4%

**Q.** And the viability, T/C [10]?
**A.** 38%

**Q.** What about the viability, T/C (second compound 10 µM, first compound 0.000999 µM) of the same molecule?
**A.** 69.7%

**Q.** What about the viability, T/C (second compound 10 µM, first compound 0.00316 µM) of the same molecule?
**A.** 79.2%

**Q.** And the viability, T/C (second compound 10 µM, first compound 0.00999 µM)?
**A.** 73.5%

**Q.** What about the viability, T/C [11] of the same molecule?
**A.** 56.3%

**Q.** What about the viability, T/C (second compound 10 µM, first compound 0.0999 µM) of the same molecule?
**A.** 42.8%

**Q.** And the viability, T/C [12]?
**A.** 40.8%
